According to patent US8658618B2, “Methods for preventing or reducing neurotoxicity associated with administering DPD inhibitors in combination with 5-FU and 5-FU prodrugs” (Adherex Technologies, Inc., priority 2009, dated 2014):
Read-outs that look alike come from different tables or passages of the source.

Legend:
[1] = test system: dogs; settings: cited from earlier work
[2] = cited from earlier work; for elimination half-life of 5-FU: Phase I
[3] = test system: mice, monkeys, cats, and dogs; settings: in vivo; cited from earlier work
[4] = test system: tumor; settings: tumor-bearing rats and tissue culture; cited from earlier work
[5] = test system: tumor; settings: excess eniluracil present at the time 5-FU is administered; cited from earlier work
[6] = target: T1, DPD (Homo sapiens, UniProt Q12882); settings: the two patients with neurotoxicity, 20 mg eniluracil (9.5 and 8.0 mg/m^2); cited from earlier work
T1 construct: eliminated greater than 90% of DPD in peripheral blood cells for prolonged periods; from tissue; host or cells: peripheral blood cells of cancer patients
T1 sequence (Q12882 4-1025): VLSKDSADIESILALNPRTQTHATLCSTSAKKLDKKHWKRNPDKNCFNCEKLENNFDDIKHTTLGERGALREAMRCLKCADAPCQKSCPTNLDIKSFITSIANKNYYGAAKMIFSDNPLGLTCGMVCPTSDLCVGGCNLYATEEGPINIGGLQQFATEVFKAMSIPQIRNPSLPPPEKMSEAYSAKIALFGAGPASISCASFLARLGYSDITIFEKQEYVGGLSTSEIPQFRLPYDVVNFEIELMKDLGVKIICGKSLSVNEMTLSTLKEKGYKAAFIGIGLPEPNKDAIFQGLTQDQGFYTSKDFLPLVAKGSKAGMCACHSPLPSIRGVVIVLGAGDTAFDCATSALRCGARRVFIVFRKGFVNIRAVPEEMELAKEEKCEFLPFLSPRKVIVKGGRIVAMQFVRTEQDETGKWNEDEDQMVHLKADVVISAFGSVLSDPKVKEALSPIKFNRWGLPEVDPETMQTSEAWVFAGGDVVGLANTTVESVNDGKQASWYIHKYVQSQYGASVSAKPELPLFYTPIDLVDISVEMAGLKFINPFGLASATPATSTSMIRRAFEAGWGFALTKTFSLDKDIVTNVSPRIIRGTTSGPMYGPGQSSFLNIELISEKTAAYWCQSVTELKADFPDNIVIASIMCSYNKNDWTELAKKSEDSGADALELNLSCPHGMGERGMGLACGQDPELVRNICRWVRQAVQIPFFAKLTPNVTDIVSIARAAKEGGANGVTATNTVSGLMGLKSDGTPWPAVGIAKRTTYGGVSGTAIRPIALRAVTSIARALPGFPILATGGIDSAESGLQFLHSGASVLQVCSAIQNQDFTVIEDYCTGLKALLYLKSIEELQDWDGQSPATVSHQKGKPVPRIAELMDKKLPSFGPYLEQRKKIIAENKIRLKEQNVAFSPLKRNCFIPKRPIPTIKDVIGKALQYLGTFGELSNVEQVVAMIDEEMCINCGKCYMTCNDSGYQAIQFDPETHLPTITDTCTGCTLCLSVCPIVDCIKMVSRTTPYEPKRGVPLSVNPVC

[7] = test system: patients; settings: 20 mg eniluracil before 5-FU; 17 patients; cited from earlier work
[8] = test system: patients with colorectal cancer; settings: cited from earlier work
[9] = target: T1, DPD; settings: eniluracil 0.74 mg/m^2 (about 1 mg total), for prolonged periods; cited from earlier work
[10] = humans; cited from earlier work
[11] = Calculated amount of eniluracil remaining in the body after 10.5 hours; parameters: species or system human; settings: approximately three elimination half-lives
Method: The amounts of eniluracil shown in Table 1 below may be used achieve doses in the 16-20 mg/m^2 range. The calculated amount of eniluracil remaining in the body after 10.5 hours (approximately three elimination half-lives) is also presented. Thus, if the weekly and the 5-day dosing schedules employ doses of 5-FU ranging between about 15-50 mg/m^2, the ratio of eniluracil to 5-FU will always be less than about 1:6 when 5-FU is administered. For example, when the commonly used 25 mg/m^2 dose of 5-FU is administered 10.5 hours after eniluracil, the ratio of eniluracil to 5-FU will be about 1:10 or less.

[12] = test system: tumors; settings: eniluracil with 5-FU, laboratory animals bearing tumors; cited from earlier work
[13] = test system: cancer patients; experiment: Clinical trial: 5 mg eniluracil followed 12-24 hours later by 5-FU, neurotoxicity; type: in vivo, human; settings: then 30-160 mg 5-FU 12-24 hours later, 41 patients
Method: Therefore, a clinical trial was initiated wherein cancer patients were administered a 5 mg dose of eniluracil followed by 5-FU at a 30-160 mg dose 12-24 hours later. Unexpectedly, the majority of the 41 patients undergoing this treatment experienced some form of mild to severe neurotoxicity, with the main neurological symptoms being ataxia (an unsteady gait), neuropathy, confusion, dizziness, and slurred speech.
Based on this important finding, a clinical trial was initiated wherein cancer patients were administered a 5 mg dose of eniluracil, which was believed to be sufficient to systemically eliminate DPD activity in the patients. 5-FU was then administered 12-24 hours later at a dose of 30-160 mg. Unexpectedly, however, the majority of the 41 patients undergoing this treatment experienced some form of mild to severe neurotoxicity, with the main neurological symptoms being ataxia (an unsteady gait), neuropathy, confusion, dizziness, and slurred speech.
A clinical trial was initiated based on the important mechanistic findings described in WO 2006/060697. More specifically, cancer patients were administered a 5 mg dose of eniluracil and 12-24 hours thereafter were administered a 30-160 mg dose of 5-FU. […]

[14] = target: T2, DPD (Rattus norvegicus, UniProt O89000); settings: rats; spleen, intestinal mucosa, lung; cited from earlier work
T2 construct: from tissue; host or cells: rat brain, liver, spleen, intestinal mucosa, lung (in vivo dosing)
T2 sequence (O89000 1-1025): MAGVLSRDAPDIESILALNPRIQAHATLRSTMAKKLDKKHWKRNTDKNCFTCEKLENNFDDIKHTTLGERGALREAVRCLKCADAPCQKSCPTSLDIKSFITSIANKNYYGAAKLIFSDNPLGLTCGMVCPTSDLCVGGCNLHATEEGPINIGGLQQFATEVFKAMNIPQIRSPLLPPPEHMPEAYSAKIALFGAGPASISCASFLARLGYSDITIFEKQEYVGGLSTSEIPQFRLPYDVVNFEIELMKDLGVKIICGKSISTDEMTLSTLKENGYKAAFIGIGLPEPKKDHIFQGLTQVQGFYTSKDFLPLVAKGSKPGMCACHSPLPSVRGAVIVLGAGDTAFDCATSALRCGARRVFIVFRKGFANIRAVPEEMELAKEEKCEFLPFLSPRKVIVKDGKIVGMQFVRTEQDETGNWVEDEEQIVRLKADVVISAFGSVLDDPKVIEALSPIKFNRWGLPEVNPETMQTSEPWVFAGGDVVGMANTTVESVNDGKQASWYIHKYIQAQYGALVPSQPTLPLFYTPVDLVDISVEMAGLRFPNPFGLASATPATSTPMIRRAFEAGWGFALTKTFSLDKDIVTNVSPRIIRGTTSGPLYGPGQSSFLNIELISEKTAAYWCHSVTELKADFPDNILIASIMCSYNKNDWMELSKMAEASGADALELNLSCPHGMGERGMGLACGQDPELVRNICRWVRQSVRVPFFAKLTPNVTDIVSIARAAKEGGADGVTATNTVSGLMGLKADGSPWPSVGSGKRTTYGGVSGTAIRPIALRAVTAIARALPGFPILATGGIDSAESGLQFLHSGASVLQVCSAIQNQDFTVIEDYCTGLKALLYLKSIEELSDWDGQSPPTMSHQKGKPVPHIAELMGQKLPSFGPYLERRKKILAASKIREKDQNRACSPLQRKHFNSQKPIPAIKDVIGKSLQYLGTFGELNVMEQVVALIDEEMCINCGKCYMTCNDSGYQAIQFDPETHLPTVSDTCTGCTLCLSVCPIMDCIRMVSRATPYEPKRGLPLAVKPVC

[15] = test system: cancer patients; settings: cited from earlier work

## O=c1[nH]cc(F)c(=O)[nH]1 [5-FU, 5-Fluorouracil]
[1]; intravenous 5-FU alone, only low blood levels of 5-FU
  neurotoxicity: induced seizures, muscle tremors, and ataxia
[2]; after one dose of eniluracil
  elimination half-life of 5-FU: 3.5 h
[2]; eniluracil 3.7 mg/m^2
  half-life of 5-FU: 4.5 to 6.5 h
[2]; with eniluracil
  5-FU elimination half-life: 4.5 to 6.5 h
[2]; without eniluracil
  elimination half-life of 5-FU: about 10 minutes
  5-FU elimination half-life: 0.167 to 0.333 h

## NCC(F)C(=O)O (stereo not drawn) [F-Bal, α-fluoro-β-alanine]
[3]
  neurotoxicity: can cause neurotoxicity

## Nc1nc2c(c(=O)[nH]1)N(C=O)C(CNc1ccc(C(=O)N[C@@H](CCC(=O)O)C(=O)O)cc1)CN2 (stereo partly shown) [Leucovorin]
[4]
  antitumor efficacy of eniluracil and 5-FU: improve the antitumor efficacy

## C#Cc1c[nH]c(=O)[nH]c1=O [eniluracil, 5-ethynyluracil]
[5]
  antitumor activity of 5-FU: significantly diminished
[6]
  DPD in peripheral blood cells: completely inactivated
[7]
  incidence of neurotoxicity: 12%
[8]; 10 mg/m^2 eniluracil and 1 mg/m^2 5-FU every 12 hr for 28 days, North American trial
  antitumor benefit versus standard regimen of 5-FU/leucovorin: less antitumor benefit
[8]; eniluracil about 11.5 mg/m^2 every 12 hours
  total incidence of severe neurotoxicity: 6%
[9]
  DPD eliminated in peripheral blood cells: greater than 90%
[10]
  elimination half-life for eniluracil: about 3.5 hours
[11]; eniluracil dose 25 mg
  Estimated Amount of Eniluracil remaining 10.5 hr after dosing: 3.1 mg
[11]; eniluracil dose 30 mg
  Estimated Amount of Eniluracil remaining 10.5 hr after dosing: 3.8 mg
[11]; eniluracil dose 40 mg
  Estimated Amount of Eniluracil remaining 10.5 hr after dosing: 5.0 mg
[11]; eniluracil dose 50 mg
  Estimated Amount of Eniluracil remaining 10.5 hr after dosing: 6.3 mg
[12]
  antitumor efficacy of 5-FU: significantly improved
[13]
  patients experiencing some form of mild to severe neurotoxicity: majority
[1]; dogs pretreated with eniluracil, high blood levels of 5-FU
  neurotoxicity: without any neurotoxicity
[14]
  dose required to inactivate 50% of DPD in brain relative to liver and other non-nervous tissues: approximately six-fold
[15]; Phase I clinical trials in cancer patients
  toxicity: without causing toxicity
[15]; doses up to 50 mg per day for seven days
  safety: safe
